Experimental data: patent US4267192A, “Method for treating inflammation” (priority 1980, dated 1981)
Read-outs that look alike come from different tables or passages of the source.

Assays:
[1] = system: carrageenan-induced edema in the hind paw of the rat; assay: rat carrageenan edema test (hind paw); assay type: in vivo, rat (male Sprague-Dawley); settings: for Change in paw volume (ml) from 0-3 hr: mean ± S.E.; for % Change in paw edema: vs control
Procedure: (§1) Vehicle alone is administered as a control. Sixty minutes after drug administration edema is induced by an injection of 0.1 ml. of a 1% carrageenan solution is saline into the subplantar tissue of the rat's right hind paw. Two minutes later, paw volume is measured volumetrically with a plethysmograph and again 3 hours later. The mean volume of swelling for the control group is calculated and compared to the test groups. Percent change in paw edema is calculated and analyzed statistically (unpaired, Student's t-test).

prostaglandin synthetase = molecular target: T1, prostaglandin synthetase (Ovis aries, UniProt P05979); settings: in words; cited from earlier work
T1 sequence (P05979 25-600): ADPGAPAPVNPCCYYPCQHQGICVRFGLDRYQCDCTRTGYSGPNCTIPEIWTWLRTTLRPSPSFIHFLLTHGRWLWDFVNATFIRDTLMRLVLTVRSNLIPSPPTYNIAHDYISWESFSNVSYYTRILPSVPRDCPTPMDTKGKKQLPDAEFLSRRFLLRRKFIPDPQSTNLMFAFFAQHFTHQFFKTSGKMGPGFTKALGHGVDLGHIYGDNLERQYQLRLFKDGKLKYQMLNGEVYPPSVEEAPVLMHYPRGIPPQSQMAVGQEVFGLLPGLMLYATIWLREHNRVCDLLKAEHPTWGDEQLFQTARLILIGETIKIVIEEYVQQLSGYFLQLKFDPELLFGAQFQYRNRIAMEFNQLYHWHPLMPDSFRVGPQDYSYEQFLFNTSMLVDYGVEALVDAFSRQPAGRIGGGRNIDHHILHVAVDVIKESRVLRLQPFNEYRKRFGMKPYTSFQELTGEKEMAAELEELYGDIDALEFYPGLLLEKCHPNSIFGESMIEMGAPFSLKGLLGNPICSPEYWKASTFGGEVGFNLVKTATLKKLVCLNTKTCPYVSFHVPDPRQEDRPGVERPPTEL

[2] = system: rat stomach (gastric ulcers, gastric swelling); settings: especially in long-term therapy; in words; cited from earlier work
[3] = system: polyarthritis induced by Mycobacterium butyricum or tuberculosis in rats; settings: rat; cited from earlier work
[4] = system: carrageenan-induced edema in the hind paw of normal and adrenalectomized rats; assay: carrageenan paw edema in normal and adrenalectomized rats; assay type: in vivo, rat
Procedure: as §1
Normal rats received the same doses as adrenalectomized rats.

[5] = system: polyarthritis induced by Mycobacterium butyricum or tuberculosis in rats; settings: rat; for Increase in Left Paw Volume (ml.) 0-16 days / Increase in Right Paw Volume (ml.) 0-4 days: mean ± S.E.
Procedure: (§2) Polyarthritis is induced in groups of 6-10 Sprague-Dawley rats weighing between 180-220 g. by a subcutaneous injection into the right paw of dessicated Mycobacterium butyricum or tuberculosis (0.5 mg/0.1 ml.) suspended in light mineral oil. […] Both hind paw volumes (ml.) are measured by mercury plethysmograph on day 0 or at the time of injection of the complete adjuvant. Increases in paw volume (viz. edema) are determined for both paws on days 4 and 16. The change in body weight from day 0 to day 16 is also calculated. Statistical analysis of differences in paw edemas and body weight is performed by using the unpaired. Student's t-test.

[6] = system: established adjuvant arthritis in rats; assay: established adjuvant arthritis, dosing on days 16, 17 and 18; settings: rat
Procedure: as §2
The changes in left paw edema are measured at the end of 19 days, 23 days and 30 days.

[7] = system: rat stomach (gastric ulcers, gastric swelling); assay type: in vivo, rat (male Charles River, Sprague-Dawley); settings: for Number of Animals With Gastric Swelling / Number of Animals With Gastric Ulcers: rat, 4 hours after dosing
Procedure: The rats are divided into groups 6-10 and dosed by the oral route with test compound, on a mg/kg. body weight basis, or vehicle control, 0.5% carboxymethylcellulose, in a volume of 3 ml. per rat. Four hours after dosing, the rats are decapitated and exsanguinated. Stomachs are removed and examined for gastric swelling and then opened and washed for visual inspection of gastric ulcers. Only one lesion or gastric bleeding is necessary for a positive response. Data is reported quantally.

[8] = system: prostaglandin synthesis in gastric mucosa; settings: background; in words; cited from earlier work
[9] = background; in words; cited from earlier work
[10] = oral 270 mg/kg, Table 1 group d
[11] = Adrenalectomized Rats, oral 300 mg/kg
[12] = oral 180 mg/kg, Table 1 group e
[13] = oral 0.1 mg/kg daily, Table 3 group a
[14] = oral 0.3 mg/kg daily, Table 3 group a
[15] = oral 1.0 mg/kg daily, Table 3 group a
[16] = oral 3.0 mg/kg daily, Table 3 group a
[17] = oral 0.33 mg/kg, days 16, 17, 18
[18] = oral 1.00 mg/kg, days 16, 17, 18
[19] = oral 3.00 mg/kg, days 16, 17, 18
[20] = Adrenalectomized Rats, oral 5 mg/kg
[21] = oral 120 mg/kg, Table 1 group f
[22] = oral 240 mg/kg, Table 1 group f
[23] = oral 480 mg/kg, Table 1 group f
[24] = oral 25.0 mg/kg daily, Table 3 group b

## CC(=O)Oc1ccccc1C(=O)O [Aspirin, aspirin, reference compound]
[1]; oral
  estimated ED50 (carrageenan paw edema): ~110 mg/kg
[1]; oral 30 mg/kg, Table 1 group d
  Change in paw volume (ml) from 0-3 hr: 0.63 ± 0.02 mL
  % Change in paw edema: -28%
[1]; oral 90 mg/kg, Table 1 group d
  Change in paw volume (ml) from 0-3 hr: 0.54 ± 0.04 mL
  % Change in paw edema: -39%
[1]; [10]
  Change in paw volume (ml) from 0-3 hr: 0.29 ± 0.10 mL
  % Change in paw edema: -67%
Prostaglandin synthetase
  appreciable effects on prostaglandin synthetase activity: appreciable effects on prostaglandin synthetase activity
[2]
  gastric ulcerogenicity: proven gastric ulcerogens
[3]
  ED50 (adjuvant arthritis test), has been assessed: approximately 140 mg/kg
[4]; [11]
  % Inhibition: 34%
  Edema (ml) ± S.E.: 0.64 ± .04 mL
[4]; Adrenalectomized Rats, oral 300 mg/kg, footnote a
  animals died: 1/6
[4]; Normal Rats, oral 300 mg/kg
  % Inhibition: 44%
  Mean Edema (ml) ± S.E.: 0.52 ± .07 mL

## CCOC(=O)C=C1c2ccccc2C=Cc2ccccc21 [EDCHA, ethyl(5H-dibenzo[a,d]cyclohepten-5-ylidene)acetate]
[1]; oral
  oral doses that inhibit carrageenan paw edema: 10 to 180 mg/kg
[1]; oral 20 mg/kg, Table 1 group e
  Change in paw volume (ml) from 0-3 hr: 1.11 ± 0.08 mL
  % Change in paw edema: -4%
[1]; oral 60 mg/kg, Table 1 group e
  Change in paw volume (ml) from 0-3 hr: 0.98 ± 0.06 mL
  % Change in paw edema: -15%
[1]; [12]
  Change in paw volume (ml) from 0-3 hr: 0.87 ± 0.04 mL
  % Change in paw edema: -25%

## COc1ccc2c(c1)c(CC(=O)O)c(C)n2C(=O)c1ccc(Cl)cc1 [Indomethacin, indomethacin, reference compound]
[5]; [13]
  % Change of Left Paw Edema at Day 16: +5.1%
  % Change of Right Paw Edema at Day 4: -31%
  Change In Body Weight (mean ± S.E.) 0-16 days: 16.9 ± 9.0
  Increase in Left Paw Volume (ml.) 0-16 days: 0.82 ± .12 mL
  Increase in Right Paw Volume (ml.) 0-4 days: 1.07 ± .15 mL
[5]; [14]
  % Change of Left Paw Edema at Day 16: -33%
  % Change of Right Paw Edema at Day 4: -30%
  Change In Body Weight (mean ± S.E.) 0-16 days: 25.7 ± 7.8
  Increase in Left Paw Volume (ml.) 0-16 days: 0.52 ± .07 mL
  Increase in Right Paw Volume (ml.) 0-4 days: 1.09 ± .06 mL
[5]; [15]
  % Change of Left Paw Edema at Day 16: -55%
  % Change of Right Paw Edema at Day 4: -42%
  Change In Body Weight (mean ± S.E.) 0-16 days: 36.5 ± 7.9
  Increase in Left Paw Volume (ml.) 0-16 days: 0.35 ± .03 mL
  Increase in Right Paw Volume (ml.) 0-4 days: 0.90 ± .11 mL
[5]; [16]
  % Change of Left Paw Edema at Day 16: -65%
  % Change of Right Paw Edema at Day 4: -37%
  Change In Body Weight (mean ± S.E.) 0-16 days: 49.8 ± 6.2
  Increase in Left Paw Volume (ml.) 0-16 days: 0.27 ± .03 mL
  Increase in Right Paw Volume (ml.) 0-4 days: 0.99 ± .05 mL
[5]; oral, daily
  estimated ED50 (adjuvant arthritis test): ~0.9 mg/kg
[1]; oral
  estimated ED50 (carrageenan paw edema): ~2.7 mg/kg
[1]; oral 1 mg/kg, Table 1 group b
  Change in paw volume (ml) from 0-3 hr: 0.65 ± 0.06 mL
  % Change in paw edema: -36%
[1]; oral 3 mg/kg, Table 1 group b
  Change in paw volume (ml) from 0-3 hr: 0.50 ± 0.07 mL
  % Change in paw edema: -51%
[1]; oral 5 mg/kg, Table 1 group e
  Change in paw volume (ml) from 0-3 hr: 0.54 ± 0.08 mL
  % Change in paw edema: -53%
[1]; oral 9 mg/kg, Table 1 group b
  Change in paw volume (ml) from 0-3 hr: 0.32 ± 0.02 mL
  % Change in paw edema: -69%
Prostaglandin synthetase
  appreciable effects on prostaglandin synthetase activity: appreciable effects on prostaglandin synthetase activity
[6]; 3.00 mg/kg, days 16, 17 and 18
  rats died by the 23rd day: six out of ten rats had died
[6]; [17]
  % Change from Control, left paw edema (day 0-19): -31%
  % Change from Control, left paw edema (day 0-23): +6%
  % Change from Control, left paw edema (day 0-30): -6%
  Increase in left paw edema ml. (day 0-19): 0.70 ± 0.11 mL
  Increase in left paw edema ml. (day 0-23): 1.02 ± 0.14 mL
  Increase in left paw edema ml. (day 0-30): 1.41 ± 0.20 mL
[6]; [18]
  % Change from Control, left paw edema (day 0-19): -40%
  % Change from Control, left paw edema (day 0-23): +4%
  % Change from Control, left paw edema (day 0-30): -22%
  Increase in left paw edema ml. (day 0-19): 0.62 ± 0.05 mL
  Increase in left paw edema ml. (day 0-23): 1.00 ± 0.06 mL
  Increase in left paw edema ml. (day 0-30): 1.18 ± 0.10 mL
[6]; [19]
  % Change from Control, left paw edema (day 0-19): -60%
  Increase in left paw edema ml. (day 0-19): 0.41 ± 0.06 mL
  deaths (day 0-23): 6/10
  deaths (day 0-30): 6/10
[2]
  gastric ulcerogenicity: proven gastric ulcerogens
[7]; dosage levels indicated for treatment of inflammatory conditions
  effects on the gastric tract: significant effects on the gastric tract
[7]; oral 2.5 mg/kg
  Number of Animals With Gastric Swelling: 0/10
  Number of Animals With Gastric Ulcers: 0/9
[7]; oral 5.0 mg/kg
  Number of Animals With Gastric Swelling: 0/10
  Number of Animals With Gastric Ulcers: 9/10
[7]; oral 10.0 mg/kg
  Number of Animals With Gastric Swelling: 0/10
  Number of Animals With Gastric Ulcers: 10/10
[4]; [20]
  % Inhibition: 59%
  Edema (ml) ± S.E.: 0.42 ± .09 mL
[4]; Normal Rats, oral 5 mg/kg
  % Inhibition: 60%
  Mean Edema (ml) ± S.E.: 0.42 ± .09 mL
[8]
  inhibitory effect on prostaglandin synthesis in gastric mucosa: marked inhibitory effect on prostaglandin synthesis in gastric mucosa

## COC(=O)C=C1c2ccccc2C=Cc2ccccc21 [MDCHA, Methyl(5H-dibenzo[a,d]cyclohepten-5-ylidene)acetate]
[1]; oral 60 mg/kg, Table 1 group f
  Change in paw volume (ml) from 0-3 hr: 0.68 ± 0.08 mL
  % Change in paw edema: -8%
[1]; [21]
  Change in paw volume (ml) from 0-3 hr: 0.59 ± 0.08 mL
  % Change in paw edema: -20%
[1]; [22]
  Change in paw volume (ml) from 0-3 hr: 0.68 ± 0.10 mL
  % Change in paw edema: -8%
[1]; [23]
  Change in paw volume (ml) from 0-3 hr: 0.59 ± 0.07 mL
  % Change in paw edema: -20%

## CCCCC1C(=O)N(c2ccccc2)N(c2ccccc2)C1=O [Phenylbutazone, phenylbutazone, reference compound]
[5]; [24]
  % Change of Left Paw Edema at Day 16: -39%
  % Change of Right Paw Edema at Day 4: -44%
  Change In Body Weight (mean ± S.E.) 0-16 days: 24.0 ± 6.3
  Increase in Left Paw Volume (ml.) 0-16 days: 0.45 ± .13 mL
  Increase in Right Paw Volume (ml.) 0-4 days: 1.04 ± .05 mL
[9]
  bone marrow depression: can cause bone marrow depression
